# Where two headings read alike, the source gives them in different places.
# Tests used:
# [1] = tested on: Mycobacterium tuberculosis H37Rv (ATCC27294); experiment: microbe, parasite or virus in culture; type: cell-based
# [2] = tested on: mouse macrophage RAW 264.7 cells
# [3] = in vitro; conditions: mouse
# [4] = tested on: M. tuberculosis H37Rv nutrient-starved culture; type: cell-based, Mycobacterium tuberculosis
# [5] = Mycobacterium tuberculosis, ATCC27294|H37RV
# [6] = RAW 264.7 cells, 50 μg/mL, 48 hr, MTT
Compound,"MIC ([1]; Mtb H37Rv, repeated in Table 2) [µg/mL]","MIC [1, 5] [µg/mL]","% cell inhibition at 50 μg/mL [2, 6] [%]",IC50 [3] [µg/mL],other results
"O=C(CCNS(=O)(=O)c1ccc([N+](=O)[O-])cc1[N+](=O)[O-])N1CCN(C(c2ccc(F)cc2)c2ccc(F)cc2)CC1 [7l, N-(3-(4-(Bis(4-fluorophenyl)methyl)piperazin-1-yl)-3-oxopropyl)-2,4-dinitrobenzene Sulfonamide]",0.78,0.78,60.2,> 50,
"O=[N+]([O-])c1ccc(S(=O)(=O)N2CCN(C(c3ccc(F)cc3)c3ccc(F)cc3)CC2)c([N+](=O)[O-])c1 [7d, 1-(Bis(4-fluorophenyl)methyl)-4-((2,4-dinitrophenyl)sulfonyl)piperazine]",,> 25,,,
"O=C(C1CCCN(S(=O)(=O)c2ccc([N+](=O)[O-])cc2[N+](=O)[O-])C1)N1CCN(C(c2ccccc2)c2ccccc2)CC1 (stereo not shown) [7s, (4-Benzhydrylpiperazin-1-yl) (1-((2,4-Dinitrophenyl)sulfonyl)piperidin-3-yl)methanone]",0.78,0.78,59.2,> 50,
"O=C(CCNS(=O)(=O)c1ccc([N+](=O)[O-])cc1[N+](=O)[O-])N1CCN(C(c2ccccc2)c2ccccc2)CC1 [7k, N-(3-(4-Benzhydrylpiperazin-1-yl)-3-oxopropyl)-2,4-dinitrobenzenesulfonamide]",0.78,0.78,61.4,> 50,
"O=[N+]([O-])c1ccccc1S(=O)(=O)N1CCN(C(c2ccc(F)cc2)c2ccc(F)cc2)CC1 [7e, 1-(Bis(4-fluorophenyl)methyl)-4-((2-nitrophenyl)sulfonyl)piperazine]",,> 25,,,
"O=C(CNS(=O)(=O)c1ccc([N+](=O)[O-])cc1[N+](=O)[O-])N1CCN(C(c2ccccc2)c2ccccc2)CC1 [7g, N-(2-(4-Benzhydrylpiperazin-1-yl)-2-oxoethyl)-2,4-dinitrobenzenesulfonamide]",,12.5,,,
"O=C(C1CCCN(S(=O)(=O)c2ccc([N+](=O)[O-])cc2[N+](=O)[O-])C1)N1CCN(C(c2ccc(F)cc2)c2ccc(F)cc2)CC1 (stereo not shown) [7v, (4-(Bis(4-fluorophenyl)methyl)piperazin-1-yl) (1-((2,4-Dinitrophenyl)sulfonyl)piperidin-3-yl)methanone]",0.78,0.78,55.7,> 50,
"O=C(C1CCCN(S(=O)(=O)c2ccc([N+](=O)[O-])cc2)C1)N1CCN(C(c2ccccc2)c2ccccc2)CC1 (stereo not shown) [7u, (4-Benzhydrylpiperazin-1-yl) (1-((4-Nitrophenyl)sulfonyl)piperidin-3-yl)methanone]",,> 25,,,
"O=C(C1CCN(S(=O)(=O)c2ccc([N+](=O)[O-])cc2[N+](=O)[O-])C1)N1CCN(C(c2ccccc2)c2ccccc2)CC1 (stereo not shown) [7y, (4-Benzhydrylpiperazin-1-yl) (1-((2,4-Dinitrophenyl)sulfonyl)pyrrolidin-3-yl)methanone]",0.78,0.78,59.6,> 50,
"O=[N+]([O-])c1ccccc1S(=O)(=O)N1CCN(C(c2ccccc2)c2ccccc2)CC1 [7b, 1-Benzhydryl-4-((2-nitrophenyl)sulfonyl)piperazine]",,> 25,,,
"O=C(C1CCN(S(=O)(=O)c2ccccc2[N+](=O)[O-])CC1)N1CCN(C(c2ccccc2)c2ccccc2)CC1 [7p, (4-Benzhydrylpiperazin-1-yl) (1-((2-Nitrophenyl)sulfonyl)piperidin-4-yl)methanone]",,> 25,,,
"O=C(C1CCN(S(=O)(=O)c2ccc([N+](=O)[O-])cc2)CC1)N1CCN(C(c2ccccc2)c2ccccc2)CC1 [7q, (4-Benzhydrylpiperazin-1-yl) (1-((4-Nitrophenyl)sulfonyl)piperidin-4-yl)methanone]",,> 25,,,
"CC[C@@H](CO)NCCN[C@@H](CC)CO [Ethambutol, reference compound]",,1.56,,,
"O=C(C1CCN(S(=O)(=O)c2ccc([N+](=O)[O-])cc2[N+](=O)[O-])CC1)N1CCN(C(c2ccccc2)c2ccccc2)CC1 [7o, (4-Benzhydrylpiperazin-1-yl) (1-((2,4-dinitrophenyl)sulfonyl)piperidin-4-yl)methanone]",0.78,0.78,57.2,> 50,
"O=[N+]([O-])c1ccc(S(=O)(=O)N2CCN(C(c3ccc(F)cc3)c3ccc(F)cc3)CC2)cc1 [7f, 1-(Bis(4-fluorophenyl)methyl)-4-((4-nitrophenyl)sulfonyl)piperazine]",,> 25,,,
"CO[C@H]1/C=C/O[C@@]2(C)Oc3c(C)c(O)c4c(O)c(c(/C=N/N5CCN(C)CC5)c(O)c4c3C2=O)NC(=O)/C(C)=C\C=C\[C@H](C)[C@H](O)[C@@H](C)[C@@H](O)[C@@H](C)[C@H](OC(C)=O)[C@@H]1C [Rifampicin, reference compound]",0.1,0.1,90,> 25,"MIC ([1]; Mtb H37Rv strain, triplicate, Table 1 and text): 0.10 µg/mL"
"O=C(CCCNS(=O)(=O)c1ccc([N+](=O)[O-])cc1[N+](=O)[O-])N1CCN(C(c2ccc(F)cc2)c2ccc(F)cc2)CC1 [7aa, N-(4-(4-(Bis(4-fluorophenyl)methyl)piperazin-1-yl)-4-oxobutyl)-2,4-dinitrobenzene Sulfonamide]",0.78,0.78,59.2,> 50,
"NNC(=O)c1ccncc1 [Isoniazid, reference compound]",0.05,,97,> 25,
"O=C(C1CCCN(S(=O)(=O)c2ccccc2[N+](=O)[O-])C1)N1CCN(C(c2ccccc2)c2ccccc2)CC1 (stereo not shown) [7t, (4-Benzhydrylpiperazin-1-yl) (1-((2-Nitrophenyl)sulfonyl)piperidin-3-yl)methanone]",,> 25,,,
"O=[N+]([O-])c1ccc(S(=O)(=O)N2CCN(C(c3ccccc3)c3ccccc3)CC2)cc1 [7c, 1-Benzhydryl-4-((4-nitrophenyl)sulfonyl)piperazine]",,> 25,,,
"O=[N+]([O-])c1ccc(S(=O)(=O)N2CCN(C(c3ccccc3)c3ccccc3)CC2)c([N+](=O)[O-])c1 [7a, 1-Benzhydryl-4-((2,4-dinitrophenyl)sulfonyl)piperazine]",1.56,1.56,57.6,> 50,
"O=C(C1CCN(S(=O)(=O)c2ccc([N+](=O)[O-])cc2[N+](=O)[O-])CC1)N1CCN(C(c2ccc(F)cc2)c2ccc(F)cc2)CC1 [7r, (4-(Bis(4-fluorophenyl)methyl)piperazin-1-yl) (1-((2,4-Nitrophenyl)sulfonyl)piperidin-4-yl)methanone]",,,,,nutrient starvation (log reduction) [4]: 2.2 folds; MIC [1]: 1.56 µg/mL; % cell inhibition at 50 μg/mL [2]: 57.2%; IC50 approximation [2]: >50 µg/mL

# From article PMC8047747 (ACS Omega, 2021)
